# In US20140357713A1, “ANTIMICROBIAL COMPOUNDS AND METHODS OF USE” (NexMed Holdings, Inc., priority 2012, published 2014):
# Where a name gives a salt, the structure may show the parent alone. Read-outs that look alike come from different tables or passages of the source.
# Legend:
# Assay in all cases: MIC assay with different strains, Example 35
# Type in all cases: cell-based
# [1] = system: Acinetobacter iwoffi (ATCC 15309)
# Method: (§1) The minimum inhibitory concentration (MIC) is used to determine the lowest concentration of a test product claiming antimicrobial effects that will inhibit growth of a microorganism. Each microbial suspension was adjusted approximately 10^7 to 10^8 colony forming units (CFU) per mL and labeled as the stock suspension. The stock suspension was further diluted to 1:200 in Mueller Hinton broth to obtain a test sample having a concentration of […]. The test sample was then tested for MIC as described in M202.R02. After incubation, each tube was examined for turbidity, which indicated growth or no growth. For the tubes where the product rendered the media turbid, an aliquot of the media was streaked onto agar plates to confirm growth or lack of growth.
# [2] = system: Streptococcus pyogenes (ATCC 19615)
# Method: as §1
# [3] = system: Klebsiella pneumonia (ATCC 11296)
# Method: as §1
# [4] = system: Enterobacter aerogenes (ATCC 13048)
# Method: as §1
# [5] = system: Staphylococcus epidermidis (ATCC 12228)
# Method: as §1
# [6] = system: Enterococcus faecium (ATCC 19434)
# Method: as §1
compound,measurement,setting,value
"CCCCCCCCCCCCOC(=O)C(C)NC.Cl (stereo not drawn) [Nex-59, Dodecyl 2-(methylamino)propanoate hydrochloride]",MIC,"[1]; Acinetobacter, ATCC15309, Table 19 summary, read-out: MIC",200 µg/mL
same,MIC,[1]; Example 35,0.02%
same,Growth/no growth,[1]; Sample Concentration 0.01%,Growth
same,MIC,[2]; Example 35,≦0.01%
same,Growth/no growth,[2]; Sample Concentration 0.01%,No
same,Growth/no growth,[2]; Sample Concentration 0.02%,No
same,Growth/no growth,[2]; Sample Concentration 0.04%,No
same,Growth/no growth,[2]; Sample Concentration 0.08%,No
same,Growth/no growth,[2]; Sample Concentration 0.16%,No
same,Growth/no growth,[2]; Sample Concentration 0.32%,No
same,Growth/no growth,[2]; Sample Concentration 0.63%,No
same,Growth/no growth,[2]; Sample Concentration 1.25%,No
same,Growth/no growth,[2]; Sample Concentration 2.5%,No
same,MIC,"[2]; Streptococcus pyogenes, ATCC19615, Table 19 summary, read-out: MIC",100 µg/mL
same,MIC,[3]; Example 35,0.08%
same,MIC,"[3]; Klebsiella pneumoniae, ATCC11296, Table 19 summary, read-out: MIC",800 µg/mL
same,Growth/no growth,[3]; Sample Concentration 0.01%,Growth
same,Growth/no growth,[3]; Sample Concentration 0.02%,Growth
same,Growth/no growth,[3]; Sample Concentration 0.04%,Growth
same,Growth/no growth,[3]; Sample Concentration 0.08%,No
same,Growth/no growth,[3]; Sample Concentration 0.16%,No
same,Growth/no growth,[3]; Sample Concentration 0.32%,No
same,Growth/no growth,[3]; Sample Concentration 0.63%,No
same,Growth/no growth,[3]; Sample Concentration 1.25%,No
same,Growth/no growth,[3]; Sample Concentration 2.5%,No
same,MIC,[4]; Example 35,0.16%
same,MIC,"[4]; Klebsiella aerogenes, ATCC13048, Table 19 summary, read-out: MIC",1600 µg/mL
same,Growth/no growth,[4]; Sample Concentration 0.01%,Growth
same,Growth/no growth,[4]; Sample Concentration 0.02%,Growth
same,Growth/no growth,[4]; Sample Concentration 0.04%,Growth
same,Growth/no growth,[4]; Sample Concentration 0.08%,Growth
same,Growth/no growth,[4]; Sample Concentration 0.16%,No
same,Growth/no growth,[4]; Sample Concentration 0.32%,No
same,Growth/no growth,[4]; Sample Concentration 0.63%,No
same,Growth/no growth,[4]; Sample Concentration 1.25%,No
same,Growth/no growth,[4]; Sample Concentration 2.5%,No
same,MIC,[5]; Example 35,0.02%
same,Growth/no growth,[5]; Sample Concentration 0.01%,Growth
same,Growth/no growth,[5]; Sample Concentration 0.02%,No
same,Growth/no growth,[5]; Sample Concentration 0.04%,No
same,Growth/no growth,[5]; Sample Concentration 0.08%,No
same,Growth/no growth,[5]; Sample Concentration 0.16%,No
same,Growth/no growth,[5]; Sample Concentration 0.32%,No
same,Growth/no growth,[5]; Sample Concentration 0.63%,No
same,Growth/no growth,[5]; Sample Concentration 1.25%,No
same,Growth/no growth,[5]; Sample Concentration 2.5%,No
same,MIC,"[5]; Staphylococcus epidermidis, ATCC12228, Table 19 summary, read-out: MIC",200 µg/mL
same,MIC,"[6]; Enterococcus faecium, ATCC19434, Table 19 summary, read-out: MIC",400 µg/mL
same,MIC,[6]; Example 35,0.04%
same,Growth/no growth,[6]; Sample Concentration 0.01%,Growth
same,Growth/no growth,[6]; Sample Concentration 0.02%,Growth
"CCCCCCCCCCCCOC(=O)C(C)N(C)C (stereo not drawn) [Nex-05, Dodecyl 2-(dimethylamino)propanoate hydrochloride]",MIC,[1]; Example 35,0.156%
same,Growth/no growth,[1]; Sample Concentration 0.039%,Growth
same,Growth/no growth,[1]; Sample Concentration 0.078%,Growth
same,MIC,[2]; Example 35,0.313%
same,Growth/no growth,[2]; Sample Concentration 0.039%,Growth
same,Growth/no growth,[2]; Sample Concentration 0.078%,Growth
same,Growth/no growth,[2]; Sample Concentration 0.156%,Growth
same,MIC,[3]; Example 35,0.625%
same,Growth/no growth,[3]; Sample Concentration 0.039%,Growth
same,Growth/no growth,[3]; Sample Concentration 0.078%,Growth
same,Growth/no growth,[3]; Sample Concentration 0.156%,Growth
same,MIC,[4]; Example 35,1.25%
same,Growth/no growth,[4]; Sample Concentration 0.039%,Growth
same,Growth/no growth,[4]; Sample Concentration 0.078%,Growth
same,Growth/no growth,[4]; Sample Concentration 0.156%,Growth
same,Growth/no growth,[4]; Sample Concentration 0.313%,Growth
same,Growth/no growth,[4]; Sample Concentration 0.625%,Growth
same,MIC,[5]; Example 35,0.313%
same,Growth/no growth,[5]; Sample Concentration 0.039%,Growth
same,Growth/no growth,[5]; Sample Concentration 0.078%,Growth
same,Growth/no growth,[5]; Sample Concentration 0.156%,Growth
